The nature of series [1]: N-nitrosation of 2,3-diaminonaphtalene (DAN) to 2,3-naphthotriazole (NAT), followed by HPLC-MS/MS. The following applies: for formation of NAT: 20 μM DAN. Format: physicochemical. On the procedure: To investigate if the degradation of NO2—NO3-CLA induced generation of nitrosative species, N-nitrosation of 2,3-diaminonaphtalene (DAN) to yield 2,3-naphthotriazole (NAT) was performed. Briefly, 25 μl synthetic NO2—NO3-CLA standards were dried under a stream of nitrogen gas, and resuspended in 1 ml of solvents at different polarity with 20 μM DAN. Then, formation of NAT was followed over 60 min by HPLC-MS/MS (FIG. 4).
Analysis of NAT was performed by HPLC-MS/MS using an analytical C18 Luna column (2×20 mm, 5 μm, Phenomenex) at a 0.75 ml/min flow rate, with a gradient solvent system consisting of water containing 0.1% acetic acid (solvent A) and acetonitrile containing 0.1% acetic acid (solvent B). Samples were chromatographically resolved using the following gradient program: 10-100% solvent B (0-3.3 min); 100% solvent B (3.3-4.2 min) followed by 0.8 min re-equilibration to initial conditions. An API4000 Q-trap triple quadrupole mass spectrometer (Applied Biosystems, San Jose, Calif.), equipped with an electrospray ionization source (ESI) in positive mode, was used with the following parameters: declustering potential, 70 V; entrance potential 5; collision cell exit potential 10; collision energy 35; and a desolvation temperature of 650° C. NAT was analyzed using the MRM transition 170.1/115.1.

Series [2] in a line: UV-Vis analysis of NO2-CLA generation by decomposition of NO2—NO3—CLA at different pH (312 nm). Format: physicochemical. The following applies: 312 nm (FIG. 1). As for the experimental part:
Synthetic NO2—NO3—CLA standards were generated by performing independent reactions of 0.5 mg conjugated-9,11-linoleic acid (CLA, cat. no. UC-60A, Nu-Check Prep Inc., Elysian, Minn.) with 2 mM sodium nitrite (NaNO2) in 1 ml artificial gastric fluid for 1 h at 37° C., under continuous agitation. The lipid fraction was extracted by hexane, 50 μl were dried under a stream of nitrogen gas, dissolved in 300 μl methanol and decomposition of the NO2—NO3—CLA with generation of NO2-CLA was measured spectrophotometrically at 312 nm (FIG. 1). The addition of 10 μl acetic acid to the methanolic solution confirmed the stability of NO2—NO3—CLA at acidic pH (FIG. 1, diamond curve).

Molecules are shown by their SMILES.

For `CCCCCCC(/C=C/C(CCCCCCCC(=O)O)[N+](=O)[O-])O[N+](=O)[O-]` (centres unmarked) [NO2—NO3-CLA, (E)-9-nitro-12-(nitrooxy)octadec-10-enoic acid], the “formation of NAT” value in series [1] (dissolved in methanol, over 60 min (FIG. 4, square curve)) is recorded as “none formation of NAT was observed”; in series [1] (phosphate buffer 50 mM, pH 7.4 with 100 μM DTPA, over 60 min (FIG. 4, circle curve)), “time dependent generation of NAT”. In series [1] (phosphate buffer 50 mM, pH 7.4 with 100 μM DTPA), the “stability of NO2—NO3-CLA in basic pH” value is recorded as “instability”. Moreover, the “degradation of NO2—NO3—CLA with generation of NO2-CLA” value in series [2] (methanolic solution + 10 μl phosphate buffer 50 mM pH 7.4 or 10 μl ammonium hydroxide) is “pH-dependent”. The “rate of NO2-CLA generation on pH increase from pH 7.4 to more basic pH” value in series [2] (phosphate buffer pH 7.4 versus ammonium hydroxide) is listed as “faster generation of NO2-CLA”.

The values above are taken from patent publication US11491128B2, “Reversible nitroxide derivatives of nitroalkenes that mediate nitrosating and alkylating reactions” (University of Pittsburgh—Of the Commonwealth System of …, priority 2016, dated 2022).
